Among the data in BindingDB's records for PubMed 2156995 (Rhone-Poulenc Sante, 1990) are Ki values, retold here.

Values joined by “and” are separate entries in the source; they are usually repeats but may differ in a detail not shown here. Identical values can stand only once.

For this assay, the target named is Platelet-activating factor receptor (Homo sapiens, UniProt P25105).
Platelet-activating factor receptor, sequence (P25105 whole entry): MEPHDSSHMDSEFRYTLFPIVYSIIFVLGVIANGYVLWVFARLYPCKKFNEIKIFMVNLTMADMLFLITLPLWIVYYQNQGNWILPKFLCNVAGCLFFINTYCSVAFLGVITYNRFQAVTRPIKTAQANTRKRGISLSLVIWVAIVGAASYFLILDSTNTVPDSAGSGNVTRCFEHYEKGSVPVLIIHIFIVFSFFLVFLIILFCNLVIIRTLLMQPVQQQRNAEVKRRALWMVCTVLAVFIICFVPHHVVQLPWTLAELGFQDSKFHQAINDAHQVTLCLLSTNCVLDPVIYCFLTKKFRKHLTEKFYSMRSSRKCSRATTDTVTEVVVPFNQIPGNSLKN
Regarding `CCCCCCCCCCCCCCCCCCNC(=O)OCC(COCCCC[n+]1ccsc1)OC(=O)OC` (centres undefined) [CAS_129364], the inhibition constant (Ki) was 38.6 nM and 16.9 nM. Turning to `Cc1nnc2n1-c1sc(Br)cc1C(c1ccccc1Cl)=NC2` [2-Bromo-4-(2-chloro-phenyl)-9-methyl-6H-1-thia-5,7,8,9a-tetraaza-cyclopenta[e]azulene], the Ki was 80.5 nM and 17.4 nM.

As for `CCCCCCCCCCCCCCCCCCNC(=O)OCC1CCC(COP(=O)([O-])OCC[n+]2cccc3ccccc32)O1` (centres undefined) [NSC_108044], the inhibition constant Ki is 129 nM and 130 nM. The result for `C[C@@H]1C(=O)O[C@H]2[C@H](O)C34[C@H]5C[C@@H](C(C)(C)C)C36C(O)C(=O)O[C@H]6O[C@@]4(C(=O)O5)[C@@]12O` (some centres undefined) [BN 52021] reads 964 nM and 643 nM.

Usually Ki stands for the equilibrium dissociation constant of an inhibitor or competing ligand from its target.
